Test results: patent publication US20090180958A1, “Diagnostic and therapeutic agents” (Karyon-CTT Ltd., priority 2005, published 2009)

Key:
[1] = tested on: A549, NCI-H23, NCI-H520, NCI-H460, C8161/M1, HeLa, NIH3T3, E10V, SVEC4-10 cell lines; assay: Cytotoxicity assay (MTT); format: cell-based; settings: 7.5 μg/ml, after 1 h treatment; positive control
Experimental: In this assay cell lines were exposed to two different concentrations (50 μg/and 500 μg/ml) of IS257 targeting unit (described in Example 3) for two to three days to test the toxicity of the peptides. The measurement of cell viability was done with MTT (Thiazolyl blue, Sigma M-5655 ) tetrazolium salt. MTT is cleaved to water-insoluble formazan dye by the “succinate-tetrazolium reductase” system which is active only in viable cells. After formazan was solubilized by 10% SDS-0.01 M HCl, it was quantified in an ELISA spectrometer (ThermoLabsystems Multiscan EX) at 560 nm. CuSAO2 [trans-bis(salicylaldoximato) copper(II)] (Elo HO, Lumme PO., 1985) 7.5 μg/ml was used as a positive control for 100% toxicity.
Procedure. Cells were trypsinized from the cell culture dish (ø9 cm) with 1 ml of TE for 1-5 minutes and moved to a 50 ml Falcon tube. […]
Then 40 μl of IS257 targeting unit in appropriate medium were added to the wells in two concentrations, so that final concentrations were 50 μg/ml and 500 μg/ml, and the volume of the wells was raised back to 100 μl. […] The next day the cell morphology was analyzed with a microscope. […]
The next day, the MTT assay described above was performed. The viable count (v.c.) was calculated as:
Average toxicated cell absorbance−Average DMEM absorbance=Viable count Average living cell absorbance−Average DMEM absorbance […]

[2] = tested on: human lung tumor tissue; settings: enriched peptide sequences collected from ex vivo panning rounds four to six
Excerpt: Phage display libraries. Standard procedures according to Smith and Scott (1993) were used. Phage display libraries used for screening of clinical samples were cloned in fUSE5 vectors and were of the structure X7 and X10, thus they were linear containing seven or ten random amino acids. The libraries were used separately or as a mixture. The E. coli strain K91kan was used as host for phage amplification.
Subtractional panning. Bio-panning was started with depletion of phage clones binding to normal lung. Normal lung tissue taken from surgical lung resection, removed during dissection of tumor, was placed in ice cold DMEM (Dulbecco's medium) containing protease inhibitors (PI); 10 mM PMSF ([…]), Aprotinin (10 mg/ml) Leupeptin (10 mg/ml). Tissue samples were minced with a razor blade in a small cell culture plate in 1 ml of DMEM-PI. The samples were transferred to an eppendorf tube and washed with 1 ml DMEM-PI.
Samples were centrifuged at 4000 rpm for 5 min and were then incubated with 10^10 transforming units (TU) of phage (from one or more peptide libraries) in 1 ml DMEM-PI at 25° C. for 45 min. After this the samples were washed three times with DMEM-PI containing 1% BSA (bovine serum albumin).
Phage display on clinical tumor samples. Tissue samples were surgically removed from primary tumors of non-small cell lung cancer patients and placed in ice DMEM-PI. Part of sample was taken for pathological examination. The type and nature of the tumor samples were first verified as being NSCLC. After that, specification of subtype of NSCLC and its stage was done by pathologists.
Tissue samples were minced with a razor blade in a small cell culture plate in 1 ml of DMEM containing protease inhibitors. The samples were transferred to an eppendorf tube and washed with 1 ml DMEM-PI.
Samples were centrifuged at 4000 rpm for 5 min and were then incubated with 10^10 TU of phage (from one or more peptide libraries) in iml DMEM-PI at 25° C. for 15 min. After this the samples were washed three times with DMEM-PI containing 1% BSA (bovine serum albumin).
1 ml K91kan bacteria, OD600: 1-1.5, in LB containing 100 μg/ml kanamycin (kan) were infected with the washed pellet containing selectively attached phage particles at 25° C. for 25 min. After infection volume was increased to 2 ml with LB containing 100 μg/ml kan.
Then infected bacteria were plated on LB agar plates containing 40 μg/ml tetracycline (tet) as follows: Two parallel plates of three dilutions (1:50, 1:500, 1:5000) and the rest of the above K91kan culture in 200 μl aliquots. The plates were incubated overnight at +37° C.
The following day 24-48 colonies were picked from the LBtet plates into 96-well micro-plates for sequencing of the phage DNA. Alternatively the clones were stored for later analysis at −20° C.
Monitoring of enrichment of peptides.

[3] = tested on: NSCLC cell line A549; settings: wells coated at 30 μg/ml, 75000 cells, 30 minutes at 37° C.
Experimental: (§1) Preparation of plates for assays. Wells of Reacti-Bind Maleimide activated clear strip plate (Pierce, Prod#. 15150) were coated with targeting agents of this invention at a concentration of 30 μg/ml. The incubation was carried out of overnight at 20° C. The binding buffer containing unbound peptide was removed from the wells.
(§2) The wells were blocked with blocking buffer (1.0% BSA, 0.05% Tween20 in phosphate buffer saline (PBS) pH 7.0. PBS was prepared as follows: […] of NaCl, 1 g of KCl, 7 g of Na2HPO4×2H2O and 1 g of KH2PO4 were dissolved to 1000 ml of deionized H2O). Blank wells as controls were prepared by treating empty wells with blocking buffer. The plates were incubated 1 hour 30 min at 20° C.
(§3) After incubation the plate was washed three times with PBS. Cell binding assays. 75000 cells in volume of 150 μl of medium were added into coated wells and were incubated for 30 minutes at 37° C. After cell binding, the wells were washed with PBS for 30 minutes. Detection of targeting agent bound cells were based on the MTT assay (described in detail in Example 23, Cytotoxicity). 10 μl of MTT reagent and 90 μl of medium were added to the wells. The plate was incubated for three hours at +37° C. After the incubation, 100 μl of lysis buffer was added to the wells and let to incubated o/n 37° C. On following day the absorbance of plate was measured at 560 nm with ELISA-reader (ThermoLabsystems, multiskan EX).
(§4) Cell lines NCI-H23, NCI-H520, A549, HeLa and NIH3T3 (described in Example 18) and targeting agents HP199, HP201 and HP205 (described in Examples 5, 6, 17) were used in the cell binding.
(§5) The results are shown as measured absorbance at 560 nm.

[4] = tested on: PASMC, human primary pulmonary artery smooth muscle cell line; settings: wells coated at 30 μg/ml; 75000 cells, 30 minutes at 37° C.; control cell line PASMC
Experimental: as §1, §2, §3, §4, §5

[5] = tested on: NIH3T3, mouse fibroblast cell line; settings: wells coated at 30 μg/ml; 75000 cells, 30 minutes at 37° C.; control cell line NIH3T3
Experimental: as §1, §2, §3, §4, §5

[6] = tested on: NSCLC cell line NCI-H23; settings: wells coated at 30 μg/ml, 75000 cells, 30 minutes at 37° C.
Experimental: as §1, §2, §3, §4, §5

[7] = tested on: NSCLC cell line NCI-H520; settings: wells coated at 30 μg/ml, 75000 cells, 30 minutes at 37° C.
Experimental: as §1, §2, §3, §4, §5

[8] = tested on: A549 cells; assay: Fluorescent targeting agent staining of fixed cells; format: cell-based, human; settings: 50 μg/ml in PBS, pH 7.4; methanol-fixed A549 cells
Experimental: (§8) A549 cells and HeLa cells (described in Example 18) were grown on glass slides, washed with PBS and then fixed with methanol. The fluorescent targeting agent F5M-A49 (described in Example 10) was used to stain these cells as follows: Cells were first blocked with blocking buffer (1.0% BSA, 0.05% Tween20 in PBS, pH 7.4) for one hour at 20° C. The cells on the glass slides were incubated with 20 μl of F5M-A49 targeting agent (50 μg/ml in PBS, pH 7.4). As control, binding of F5M-A49 was competed with 20 μl of IS257 targeting unit (free peptide described in Example 3), 500 μg/ml in PBS, pH 7.4) prior to addition of the targeting agent. As negative controls, cells not incubated with any targeting agent were used. After the staining the cells were mounted on object glasses with mountex (Histolab Products Ltd). After this cells were viewed under a fluorescent microscope (Carl Zeiss Microscopy, Jena, Germany).

[9] = tested on: HeLa cells; settings: 50 μg/ml in PBS, pH 7.4; methanol-fixed HeLa cells
Experimental: as §8

[10] = tested on: PASMC; settings: 5 pM, 30 min at 37° C.; control cell line PASMC
Experimental: (§6) 5000 cells, A549, NCI-H23, NCI-H520, NCI-H460, and control cells PASMC and HeLa (described in Example 18), are grown in multi-well plates, according to the conditions described in Example 18.
(§7) After 30 min of incubation cells are washed 5 times with PBS. PBS is removed and cells are lysed by shaking in Inducer Solution (Perkin-Elmer Ltd) for 15 min. After this, fluorescence is measured by time resolved fluorescence using a Victor III fluorometer (Perkin-Elmer Ltd).

[11] = tested on: HeLa; settings: 5 pM, 30 min at 37° C.; control cell line HeLa
Experimental: as §6, §7

[Cu+2].[O-]c1ccccc1C=NO.[O-]c1ccccc1C=NO [CuSAO2, trans-bis(salicylaldoximato) copper(II), reference compound]
cell killing [1]: 100%

ARAPGVMPTT
Frequency [2]: 2

ARLPQVELSA
Frequency [2]: 3

ARMPPRS
Frequency [2]: 2

ARPPKGVNWT
Frequency [2]: 3

ARRPKLD [Ala-Arg-Arg-Pro-Lys-Leu-Asp]
Frequency [2]: 22

Ac-ARRPKLD-GAAG-PEG-G3-EAT [HP201]
binding of cells to immobilized targeting agent (absorbance at 560 nm) [3]: bind selectively | binding of cells to immobilized targeting agent (absorbance at 560 nm) [4]: do not | binding of cells to immobilized targeting agent (absorbance at 560 nm) [5]: do not | binding of cells to immobilized targeting agent (absorbance at 560 nm) [6]: bind selectively | binding of cells to immobilized targeting agent (absorbance at 560 nm) [7]: bind selectively

Ala-Asp-Gly-Ala-Ala-Arg-Arg-Pro-Lys-Leu-Asp-Gly-Ala-Ala-Gly-NH—CH2CH2—O—CH2CH2—O—CH2CH2—O—CH2—C(O)-Gly-Gly-Gly-NHCH2CH2SH [HP199]
binding of cells to immobilized targeting agent (absorbance at 560 nm) [3]: bind selectively | binding of cells to immobilized targeting agent (absorbance at 560 nm) [4]: do not | binding of cells to immobilized targeting agent (absorbance at 560 nm) [5]: do not | binding of cells to immobilized targeting agent (absorbance at 560 nm) [6]: bind selectively | binding of cells to immobilized targeting agent (absorbance at 560 nm) [7]: bind selectively

CH3C(O)-Ala-Arg-Arg-Pro-Lys-Leu-Asp-Gly-Ala-Ala-Gly-NH—(CH2)3—(O—CH2CH2)3—CH2—NH—C(O)CH2CH2—C(O)—NHCH2CH2S—C2H3(COOH)—C(O)—NH—(C20H11O5) [F5M-A49]
staining of cells (fluorescent microscope) [8]: strong staining | staining of cells (fluorescent microscope) [9]: no staining

CH3C(O)-Ala-Arg-Arg-Pro-Lys-Leu-Asp-Gly-Ala-NHCH2CH2S-p-CH2CONH-benzyl-DTPA europium chelate [A48-Eu]
binding of targeting agent to cells [10]: no binding | binding of targeting agent to cells [11]: no binding

H-Ala-Asp-Gly-Ala-asp-Pro-Leu-Lys-Arg-Ala-Arg-Gly-Ala-Ala-Gly-NH-CH2CH2—O—CH2CH2—O—CH2CH2—O—CH2—C(O)-Gly3-NHCH2CH2SH [HP205, reference compound]
binding of cells to immobilized targeting agent (absorbance at 560 nm) [3]: do not bind | binding of cells to immobilized targeting agent (absorbance at 560 nm) [6]: do not bind | binding of cells to immobilized targeting agent (absorbance at 560 nm) [7]: do not bind

SRAPNSVQHD
Frequency [2]: 2

SRAPVAP
Frequency [2]: 2

SRLPSAGTFQ
Frequency [2]: 2

SRNPGLLTVR
Frequency [2]: 2
